Measured values as given in PMC9295122, “Sialic Acid Derivatives Inhibit SiaT Transporters and Delay Bacterial Growth” (ACS Chemical Biology, 2022).

How the values were obtained:
S. aureus strain COL = test: Bacterial growth assay in MM with Neu5Ac, S. aureus; assay type: cell-based, Staphylococcus aureus; conditions: MM + Neu5Ac 3.2 mM, compound 0.5 mM, P < 0.001
Method: To investigate the efficacy of compounds 3e and 3f in inhibiting the uptake of Neu5Ac, bacterial growth assays were performed on a uropathogenic P. mirabilis strain HI4320 and a clinical HA-MRSA isolate S. aureus strain COL. The goal was to verify that compounds 3e and 3f alter bacterial growth when grown on Neu5Ac as an additional carbon source. Growth alteration would indicate Neu5Ac uptake impairment, thus validating our approach.
We first addressed whether these bacteria were able to catabolize the inhibitors and potentially use them as a carbon source for growth. Each strain was grown in carbon-limited defined minimal media (MM), without any carbon source other than sodium citrate for P. mirabilis and casamino acids for S. aureus, and supplemented with 3e and 3f. […] With these promising results, bacterial growth assays were performed in MM supplemented with Neu5Ac at a concentration of 3.2 mM and with 0.5 mM of compounds 3e and 3f (Figure 6a,b). The lag phase duration was determined as the time for the initial population density to increase twofold (see the horizontal dashed lines in Figure 6a,b). […] In the case of P. mirabilis, compound 3e indicated a delay in growth (3 h, P = 0.06), while no effect was recorded for compound 3f. […]

S. aureus COL = test: Growth in carbon-limited MM with inhibitor only, S. aureus; assay type: cell-based, Staphylococcus aureus; conditions: MM with casamino acids, compound 0.5 mM
Method: We first addressed whether these bacteria were able to catabolize the inhibitors and potentially use them as a carbon source for growth. Each strain was grown in carbon-limited defined minimal media (MM), without any carbon source other than sodium citrate for P. mirabilis and casamino acids for S. aureus, and supplemented with 3e and 3f. […] With these promising results, bacterial growth assays were performed in MM supplemented with Neu5Ac at a concentration of 3.2 mM and with 0.5 mM of compounds 3e and 3f (Figure 6a,b). The lag phase duration was determined as the time for the initial population density to increase twofold (see the horizontal dashed lines in Figure 6a,b). The effects were significant in the case of S. aureus, where a delayed growth of 4.4 and 9.4 h (P < 0.001) for compounds 3e and 3f, respectively, was observed. In the case of P. mirabilis, compound 3e indicated a delay in growth (3 h, P = 0.06), while no effect was recorded for compound 3f.
Figure S4. S. aureus COL (A) and P. mirabilis HI4320 (B) grown in defined carbon-limited minimal media (dotted line), with the addition of compound 3e (0.5 mM, solid line) or compound 3f (0.5 mM, dashed line). Average values of two biological replicates (n=2) each including two technical replicates are presented.
(1 picture or pasted object on this page, not shown here)

CC(=O)NC1C(OCc2cc(F)cc(F)c2)CC(O)(C(=O)O)OC1C(O)C(O)CO (stereo not shown) [Compound 3e]
delayed growth (lag phase) (S. aureus strain COL): 4.4 h | ability to catabolize compound (growth vs MM only) (S. aureus COL): no ability to catabolize

CC(=O)NC1C(OCc2cc(Br)cc(Br)c2)CC(O)(C(=O)O)OC1C(O)C(O)CO (stereo not shown) [Compound 3f]
delayed growth (lag phase) (S. aureus strain COL): 9.4 h | ability to catabolize compound (growth vs MM only) (S. aureus COL): no ability to catabolize
